These are literature values, as cited in patent US20240050950A1, “GRADIENT-BASED MICROFLUIDIC CIRCUIT, DEVICE, AND METHOD FOR PERFORMING AN ASSAY” (priority 2020, published 2024).

Structures can show the parent of a compound that is named as a salt.

For one data set the following is noted: Table 1, antimicrobial agents/drugs; cited from earlier work.
With `COC1=C(N)C(=O)c2nc(-c3nc(C(=O)O)c(C)c(-c4ccc(OC)c(OC)c4O)c3N)ccc2C1=O` [Streptonigrin (Bruneomycin, Nigrin), Streptonigrin], the Molar volume is recorded as 322.2 ± 5.0 cm^3. On to `COc1ccc2nc3cc(Cl)ccc3c(Nc3cc(CN4CCCC4)c(O)c(CN4CCCC4)c3)c2n1` [Pyronaridine], for which the Molar volume is reported as 381.8 ± 3.0 cm^3. Consider “4-Hydroxytamoxifen [4-Hydroxytamoxifen ((Z)-Afimoxifene)]”, for which the Molar volume is on record as 354.6 ± 3.0 cm^3. Consider `CC(C)C[C@H](NC(=O)[C@@H](O)[C@H](N)Cc1ccccc1)C(=O)O` [Bestatin (Ubenimex), Bestatin], for which the Molar volume was 257.5 ± 3.0 cm^3. In the case of `CC(=O)N1CCN(c2ccc(OCC3COC(Cn4ccnc4)(c4ccc(Cl)cc4Cl)O3)cc2)CC1` (stereo not drawn) [Ketoconazole], the Molar volume is reported as 384.9 ± 7.0 cm^3. `CO/C1=C\C(C)=C\[C@@H](C)[C@@H](O)[C@@H](C)C/C(C)=C/C=C/[C@H](OC)[C@@H]([C@@H](C)[C@@H](O)[C@H](C)[C@@]2(O)C[C@@H](OC(=O)/C=C/C(=O)NC3=C(O)CCC3=O)[C@H](C)[C@@H](C(C)C)O2)OC1=O` [Bafilomycin B1]: the Molar volume is on record as 667.1 ± 5.0 cm^3. Consider `C/C=C/C=C/C(=O)O` [Sorbic acid], for which the Molar volume is recorded as 109.4 ± 3.0 cm^3.

Turning to `NC[C@H]1O[C@H](O[C@H]2[C@H](O[C@@H]3O[C@H](CO)[C@@H](O)[C@H]3O)[C@@H](O)[C@H](N)C[C@@H]2N)[C@H](N)[C@@H](O)[C@@H]1O` [Ribostamycin], the Molar volume is given as 283.6 ± 5.0 cm^3. In the case of `CS(=O)(=O)c1ccc([C@@H](O)[C@@H](CF)NC(=O)C(Cl)Cl)cc1` [Florfenicol (Aquafen, Nuflor), Florfenicol], the Molar volume was 246.7 ± 3.0 cm^3. Regarding Lysobactin, the Molar volume is 895.9 ± 7.0 cm^3. Turning to `CO[C@@]12[C@H](COC(N)=O)C3=C(C(=O)C(C)=C(N)C3=O)N1C[C@@H]1N[C@@H]12` [Mitomycin C (Mitomycin), Mitomycin C], the Molar volume is 213.6 ± 5.0 cm^3. For `Cc1onc(-c2c(Cl)cccc2Cl)c1C(=O)N[C@@H]1C(=O)N2[C@@H]1SC(C)(C)[C@@H]2C(=O)O` [Dicloxacillin], the Molar volume is reported as 290.0 ± 5.0 cm^3. Turning to `COC[C@@H](C[C@H]1O[C@@](O)([C@H](O)[C@@H]2C[C@H](OC)[C@@H](O)CC/C=C(C)/C=C/[C@@H](O[C@@H]3O[C@@H](C)[C@H](OC)[C@@H](O)[C@@H]3O)[C@H](C)/C=C(C)/C=C(C)/C=C(\C)C(=O)O2)[C@H](C)[C@@H](O)[C@H]1C)OC1C[C@](C)(O)[C@@H](O[C@H]2C[C@@H](OC)[C@H](O)[C@@H](C)O2)[C@H](C)O1` (stereo partly drawn) [Apoptolidin (FU 40A), Apoptolidin], the Molar volume was 898.5 ± 5.0 cm^3. For the compound `Cc1ncc([N+](=O)[O-])n1C` [Dimetridazole], the Molar volume is 103.4 ± 7.0 cm^3. For `CN1C(=O)[C@]23CC4=CC=C[C@H](O)[C@H]4N2C(=O)[C@@]1(CO)SS3` [Gliotoxin], the Molar volume is given as 186.5 ± 5.0 cm^3.

For the compound `C=Cc1cc(OC)c2c(c1)c(=O)oc1c2cc(OC)c2c(O)ccc([C@H]3O[C@@H](C)[C@@H](O)[C@](C)(O)[C@@H]3O)c21` [Chrysomycin A (MFCD07370133), Chrysomycin A], the Molar volume was 361.7 ± 3.0 cm^3.

Consider `CCCc1cc(C(N)=S)ccn1` [Prothionamide], for which the Molar volume is 158.5 ± 3.0 cm^3.

With `CC1=C(C(=O)O)N2C(=O)[C@@H](N)[C@H]2SC1` [7-Aminodesacetoxycephalosporanic acid], the Molar volume is given as 134.0 ± 5.0 cm^3. For the compound `CN[C@@H]1[C@H](O)[C@H](NC)[C@H]2O[C@@]3(O)C(=O)C[C@@H](C)O[C@H]3O[C@@H]2[C@H]1O` [Spectinomycin], the Molar volume was 231.6 ± 5.0 cm^3. On to `CN1CCN(c2cc3c(cc2F)c(=O)c(C(=O)O)cn3-c2ccc(F)cc2)CC1` [Difloxacin], for which the Molar volume is 283.2 ± 3.0 cm^3. As for `CC1(C)S[C@@H]2[C@H](NC(=O)C(C(=O)O)c3ccccc3)C(=O)N2[C@H]1C(=O)O` (stereo partly drawn) [α-Carboxybenzylpenicillin], the Molar volume is on record as 246.1 ± 5.0 cm^3. With `NC(=O)c1cc[n+](CC2=C(C(=O)O)N3C(=O)[C@@H](NC(=O)[C@@H](c4ccccc4)S(=O)(=O)[O-])[C@H]3SC2)cc1` [Cefsulodin (Ulfaret), Cefsulodin], the Molar volume is 316.5 ± 7.0 cm^3. As for `CN[C@@H]1[C@@H](O[C@H]2O[C@H](CO)[C@@H](N)[C@H](O)[C@H]2O)OC2C[C@@H](N)[C@@H](O[C@H]3[C@H](O)[C@@H](O)[C@H](N)C[C@@H]3N)OC2[C@@H]1O` (stereo partly drawn) [Apramycin (Nebramycin II), Apramycin], the Molar volume is given as 344.4 ± 5.0 cm^3. For `CO/C(=C/C(N)=O)[C@H](C)[C@H](/C=C/c1csc(-c2csc([C@@H](C)/C=C/C=C/C(C)C)n2)n1)OC` [Myxothiazol], the Molar volume was 421.0 ± 3.0 cm^3. With `CCCCc1ccc(C(=O)O)nc1` [Fusaric acid (5-Butylpicolinic acid), 5-Butylpicolinic acid], the Molar volume was 161.0 ± 3.0 cm^3.

Still in this data set, the particulars now being: Table 2, anticancer drugs; cited from earlier work.
Turning to `CCCCC(=O)OCC(=O)[C@]1(O)Cc2c(O)c3c(c(O)c2[C@@H](O[C@H]2C[C@H](NC(=O)C(F)(F)F)[C@H](O)[C@H](C)O2)C1)C(=O)c1c(OC)cccc1C3=O` [Valrubicin], the Molar volume is recorded as 469.8 ± 5.0 cm^3. In the case of `CNNCc1ccc(C(=O)NC(C)C)cc1` [Matulane (Procarbazine Hydrochloride), Procarbazine Hydrochloride], the Molar volume is on record as 213.6 ± 3.0 cm^3.

Consider `CO[C@@]12[C@H](COC(N)=O)C3=C(C(=O)C(C)=C(N)C3=O)N1C[C@@H]1N[C@@H]12` [Mitomycin C (Mitomycin), Mitomycin C], for which the Molar volume is listed as 213.6 ± 5.0 cm^3. For `C=C1C[C@@H]2CC[C@@]34C[C@H]5O[C@H]6[C@@H](O3)[C@H]3O[C@H](CC[C@@H]3O[C@H]6[C@H]5O4)CC(=O)C[C@@H]3[C@@H](OC)[C@@H](C[C@H](O)CN)O[C@H]3C[C@H]3O[C@@H](CC[C@@H]1O2)C[C@@H](C)C3=C` [Eribulin Mesylate], the Molar volume is given as 563.2 ± 5.0 cm^3. Regarding `COc1cc2ncnc(Nc3ccc(F)c(Cl)c3)c2cc1OCCCN1CCOCC1` [Gefitinib], the Molar volume is reported as 337.7 ± 3.0 cm^3. Turning to `COC(=O)C[C@](O)(CCCC(C)(C)O)C(=O)O[C@@H]1C(OC)=C[C@]23CCCN2CCc2cc4c(cc2[C@H]13)OCO4` [Omacetaxine Mepesuccinate], the Molar volume is 408.4 ± 5.0 cm^3. With `CC[C@@]1(O)C(=O)OCc2c1cc1n(c2=O)Cc2cc3c(CN(C)C)c(O)ccc3nc2-1` [Hycamtin (Topotecan Hydrochloride), Topotecan Hydrochloride], the Molar volume is listed as 281.3 ± 5.0 cm^3. As for `Cn1cnc2c(F)c(Nc3ccc(Br)cc3F)c(C(=O)NOCCO)cc21` [Binimetinib], the Molar volume is on record as 264.1 ± 7.0 cm^3.

Still in this data set, the particulars now being: Table 3, antifungal drugs and other molecules; cited from earlier work.
As for `CC(=O)N1CCN(c2ccc(OCC3COC(Cn4ccnc4)(c4ccc(Cl)cc4Cl)O3)cc2)CC1` (stereo not drawn) [Ketoconazole], the Molar volume is 389.4 cm^3. Turning to `CC[C@H](C)C[C@H](C)CCCCCCCCC(=O)N[C@H]1C[C@@H](O)[C@@H](NCCN)NC(=O)[C@@H]2[C@@H](O)CCN2C(=O)[C@H]([C@H](O)CCN)NC(=O)[C@H]([C@H](O)[C@@H](O)c2ccc(O)cc2)NC(=O)[C@@H]2C[C@@H](O)CN2C(=O)[C@H]([C@@H](C)O)NC1=O` [Caspofungin], the Molar volume is 803.3 cm^3.

The data set is the same for the next values; noted with them: fluorescent dyes; cited from earlier work.
Regarding `O=c1ccc2[n+]([O-])c3ccc(O)cc3oc-2c1` [resazurin], the Molar volume is listed as 145±7 cm^3/mole.
